Experimental data as given in PMC7177633, “Effective Cellular Transport of Ortho-Halogenated Sulfonamide Derivatives of Metformin Is Related to Improved Antiproliferative Activity and Apoptosis Induction in MCF-7 Cells” (International Journal of Molecular Sciences, 2020).
Values joined by “and” are separate entries in the source; they are usually repeats but may differ in a detail not shown here. Equal entries are not always repeated. Where two headings read alike, the source gives them in different places.

Assays:
[1] = system: MDA-MB-231 cells; assay: Uptake in the presence of OCT and MATE inhibitors, MDA-MB-231 cells; assay type: in vitro ADME, human
Protocol: (§1) The uptake of sulfonamide derivatives of metformin (1–9) in MCF-7 and MDA-MB-231 cells was studied also in the presence of disopyramide, cimetidine (OCT1 and 3 inhibitors), lopinavir (OCT and PMAT inhibitor) and methenamine (MATE and OCT2 inhibitors). The cells were incubated (37 °C, 10 min) with compounds 1–9 at concentrations of 400 and 800 μmol/L and inhibitors (disopyramide, cimetidine, lopinavir or methenamine) in 250 μL of prewarmed HBSS buffer. The protocol of determination of the compound concentration was as described above.

[2] = system: HUVECs; set-up: method as in PMID 31776031; details: concentration range 10–3000 µmol/L; read-out: IC50 viability of HUVECs; cited from earlier work
[3] = system: AoSMC; set-up: method as in PMID 31776031; details: concentration range 10–3000 µmol/L; read-out: IC50 viability of AoSMCs; cited from earlier work
[4] = system: MCF-7 cells; assay: Cell viability WST-1 assay, MCF-7; assay type: cell-based; details: Homo sapiens, MCF7; WST-1, 24 h, mean ± SD (n = 6–8); read-out: IC50 inhibition of MCF-7 cells' viability
Protocol: (§2) The viability of MCF-7 and MDA-MB-231 cells was determined using a colorimetric WST-1 assay (Takara, Takara Bio Europe, Saint-Germain-en-Laye, France). Both cell lines were seeded at a density of 1 × 10^4 per well on 96-well plates and were cultured for 24 h to obtain 70% confluence. The following day, the cells were treated with various concentrations of compounds 1–9 diluted in the cell culture medium ([…]). The cells were incubated with tested compounds or pure medium (control) for 24 h (37 °C, 5% CO2). Afterwards, the cells were washed with 100 μL of culture medium, and then, the reagent dissolved in the medium was added (100 μL). The plates were incubated at the standard condition for 1.5 h, and the absorbance was read at 450 nm using a microplate reader (iMARK, Bio-Rad, Bio-Rad Laboratories Inc., Hercules, CA, USA). […] The results of samples treated with the test compounds were expressed as a percentage of the control samples. The data were presented as mean ± standard deviation (SD), n = 8. IC50 values (the concentration of the tested compound that inhibited cell growth by 50%) were calculated using a concentration-response curve (GraphPad Prism, Software, San Diego, CA, USA).
(§3) The concentrations contributing to the 50% of cell growth inhibition (IC50) were calculated using nonlinear regression analysis (fitting the curve to log (concentration) vs. cellular response).

[5] = system: MDA-MB-231 cells; assay: Cell viability WST-1 assay, MDA-MB-231; assay type: cell-based; details: Homo sapiens, MDA-MB-231; WST-1, 24 h, mean ± SD (n = 6–8); read-out: IC50 inhibition of MDA-MB-231 cells' viability
Protocol: as §2, §3

[6] = system: MCF-7 cells; assay: Cellular uptake of metformin sulfonamides in MCF-7 cells (HPLC); assay type: in vitro ADME, human
Protocol: (§4) The uptake of metformin sulfonamides (1–9) in MCF-7 and MDA-MB-231 cells was studied by incubation of the cells with 10−3000 μmol/L of compounds in 250 μL of prewarmed HBSS buffer at 37 °C for 10 min. Subsequently, the cells were then washed three times with 500 μL of ice-cold HBSS and lysed with 250 μL of 0.1-M NaOH. The samples were collected, centrifuged (5 min, 1400 rpm) and the supernatants were analyzed by the HPLC method. The concentration of each compound in the cells was calculated on the basis of the standard curve prepared by spiking known amounts of every compound on the cell layers in 250 μL of 0.1-M NaOH.
(§5) The concentration of the studied sulfonamides (1–9) was assessed using the HPLC system, consisting of an Agilent 1100 binary pump (Agilent Technologies Inc., Wilmington, DE, USA), an 1100 micro-vacuum degasser, an HP 1050 autosampler and an HP 1050 variable wavelength detector (operated at 235 nm). The chromatographic separations of compounds 1–9 were conducted on an Agilent Zorbax SB-C18 analytical column (4.6 mm × 150 mm, 5 μm) using an isocratic elution of water containing 0.1% formic acid (pH ca. 3.0) and acetonitrile containing 0.1% formic acid with a changing ratio, depending on the compound. The analyses were conducted at room temperature (RT). The detailed procedure of chromatographic analysis was described in our previous paper. The studies were conducted in quadruplicates.
(§6) The protein concentrations in representative wells of each plate were assessed using a Bio-Rad protein assay according to the Bradford method (EnVision, PerkinElmer, Inc., Waltham, MA, USA).

[7] = system: MCF-7 cells; assay: Uptake in the presence of OCT and MATE inhibitors, MCF-7 cells; assay type: in vitro ADME, human
Protocol: as §1

[8] = system: MDA-MB-231 cells; assay: Cellular uptake of metformin sulfonamides in MDA-MB-231 cells (HPLC); assay type: in vitro ADME, human
Protocol: as §4, §5, §6

[9] = system: OCTs; assay: Inhibition of [14C]choline uptake in MDA-MB-231 cells (competitive inhibition assay); assay type: cell-based, human
Protocol: (§7) The following day, after removal of the culture medium, the cells were carefully washed with prewarmed HBSS (Hanks’ balanced salt solution) containing 125 mM NaCl, 4.8 mM KCl, 1.2 mM MgSO4, 1.2 mM KH2PO4, 1.3 mM CaCl2, 5.6 mM glucose and 25 mM HEPES (pH 7.4). […] Then, the cells were washed three times with ice-cold HBSS (500 μL) and were lysed with 250 μL of 0.1-M NaOH in the ice bath, and the lysate was mixed with 1.0 mL of an emulsifier safe cocktail (PerkinElmer, Waltham, MA, USA). The radioactivity was measured by liquid scintillation counting (MicroBeta^2 counter, PerkinElmer, Waltham, MA, USA). The studies were carried out with the use of at least three replicates from the same cell passage.

[10] = system: OCTs; assay: Inhibition of [14C]choline uptake in MCF-7 cells (competitive inhibition assay); assay type: cell-based, human; details: 2400 μmol/L
Protocol: as §7

[11] = system: OCT3-BT20 cells; set-up: method as in PMID 26669511; details: OCT3-overexpressing BT-20 vs BT-20; cited from earlier work
[12] = system: MCF-7 cells; set-up: method as in PMID 30913467; details: up to 3000 µmol/L; cited from earlier work
[13] = system: MDA-MB-231 cells; set-up: method as in PMID 30913467; details: up to 3000 µmol/L; cited from earlier work
[14] = system: MDA-MB-231 cells; details: metformin, cited from earlier work
[15] = system: MCF-7 cells; details: metformin, cited from earlier work
[16] = compound and inhibitor 400 and 800 µmol/L, 10 min, 37 °C
[17] = summary from uptake with inhibitors
[18] = 800 μmol/L, 10 min incubation, 37 °C
[19] = Eadie-Hofstee analysis, transporter I
[20] = Eadie-Hofstee analysis, transporter II
[21] = reported previously, ref Markowicz-Piasecka et al., 2019

SMILES: CN(C)C(=N)N=C(N)NS(=O)(=O)c1ccc(Cl)cc1 [Compound 3]
- uptake in the presence of disopyramide, MDA-MB-231 [1, 16]: significantly lower uptake
- uptake in the presence of lopinavir, MDA-MB-231 [1, 16]: increased uptake
- uptake in the presence of methenamine, MDA-MB-231 [1, 16]: increased uptake
- interactions with OCT, PMAT and MATE1 transporters, MDA-MB-231 [1, 17]: OCT1, PMAT, MATE1
- IC50 [2]: 1770 ± 120 µM
- IC50 [3]: 1890 ± 110 µM
- IC50 [4]: 1430 ± 135 µM
- IC50 [5]: 1040 ± 134 µM
- uptake into MCF-7 cells [6, 18]: 0.84 ± 0.06 nmol/min/mg protein
- Vmax, transporter I, MCF-7 [6, 19]: 1.61 nmol/min/mg and 1.614 ± 0.11 nmol/min/mg
- Km ([6]; Eadie-Hofstee analysis, transporter I, read-out: Km, transporter I, MCF-7): 0.813 ± 0.0865 mM
- Vmax, transporter II, MCF-7 [6, 20]: 10.76 ± 0.88 nmol/min/mg
- Km ([6]; Eadie-Hofstee analysis, transporter II, read-out: Km, transporter II, MCF-7): 8.81 ± 0.791 mM
- Vmax MCF-7 (Michaelis Menten curves) ([6]; Michaelis-Menten curve): 5.073 ± 1.96 nmol/min/mg
- Km ([6]; Michaelis-Menten curve, read-out: Km MCF-7 (Michaelis Menten curves)): 3.58 ± 1.71 mM
- uptake in the presence of cimetidine, MCF-7 [7, 16]: did not change
- uptake in the presence of disopyramide, MCF-7 [7, 16]: did not change
- uptake in the presence of lopinavir, MCF-7 [7, 16]: did not change
- uptake in the presence of methenamine, MCF-7 [7, 16]: significant decrease
- interactions with OCT, PMAT and MATE1 transporters, MCF-7 [7, 17]: OCT1,MATE1
- uptake into MDA-MB-231 cells [8, 18]: 0.42 ± 0.15 nmol/min/mg protein
- Vmax, transporter I, MDA-MB-231 [8, 19]: 1.390 ± 0.23 nmol/min/mg
- Km ([8]; Eadie-Hofstee analysis, transporter I, read-out: Km, transporter I, MDA-MB-231): 2.37 ± 0.48 mM
- Vmax, transporter II, MDA-MB-231 [8, 20]: 2.20 ± 0.41 nmol/min/mg
- Km ([8]; Eadie-Hofstee analysis, transporter II, read-out: Km, transporter II, MDA-MB-231): 4.67 ± 0.932 mM
- transport efficacy (Vmax/Km) in MCF-7 relative to MDA-MB-231 ([8]; fold lower in MDA-MB-231 than in MCF-7): 2.4–3.2 fold
- IC50 ([9]; mean ± SD (n = 3)): 3760 ± 124 µM

SMILES: CN(C)C(=N)N=C(N)N [Metformin]
- maximal inhibition of [14C] choline uptake [10]: 34.3%
- metformin uptake in OCT3-BT20 cells relative to BT-20 cells [11]: more than 13 fold
- effect on MCF-7 growth [12]: did not significantly affect
- effect on MDA-MB-231 growth [13]: did not significantly affect
- Vmax MDA-231 cells (Michaelis Menten curves) [14, 21]: 0.718 ± 0.181 nmol/min/mg
- Km ([14]; reported previously, ref Markowicz-Piasecka et al., 2019, read-out: Km MDA-231 cells (Michaelis Menten curves)): 3.38 ± 0.952 mM
- uptake into MDA-MB-231 cells [14]: 0.117 ± 0.010 nmol/min/mg of proteins
- Vmax MCF-7 (Michaelis Menten curves) [15, 21]: 0.801 ± 0.296 nmol/min/mg
- Km ([15]; reported previously, ref Markowicz-Piasecka et al., 2019, read-out: Km MCF-7 (Michaelis Menten curves)): 5.58 ± 1.56 mM
- uptake into MCF-7 cells [15]: 0.107 ± 0.006 nmol/min/mg of proteins
- maximal inhibition of [14C] choline uptake ([9]; 2400 μmol/L): 29.9%
